Literature values, collected in US7329690B2, “Effectiveness of invertebrate pest-control agents” (FMC Corporation, priority 2001, dated 2008).

In the case of `O=[N+]([O-])NC1=NCCN1Cc1ccc(Cl)nc1` [imidacloprid], the water solubility is listed as 610 ppm.
